From ChEMBL document CHEMBL1201861, “Genomics of Drug Sensitity in Cancer screening data, Wellcome Trust Sanger Institute”
pIC50: −log10 of the molar value.

Key:
Assay in all cases: cells
[1] = test system: COLO-829; assay type: functional, cell-based, Homo sapiens; settings: Homo sapiens, COLO-829
Description: SANGER: Inhibition of human COLO-829 cell growth in a cell viability assay.

[2] = test system: COR-L88; assay type: functional, cell-based, Homo sapiens; settings: Homo sapiens, COR-L88;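 note: growth inhibition of COR-L88 cells, read out with a cell viability assay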
Description: SANGER: Inhibition of human COR-L88 cell growth in a cell viability assay.

[3] = test system: D-502MG; assay type: functional, cell-based, Homo sapiens; settings: Homo sapiens, D-502MG
Description: SANGER: Inhibition of human D-502MG cell growth in a cell viability assay.

[4] = test system: DB; assay type: functional, cell-based, Homo sapiens; settings: Homo sapiens, DB
Description: SANGER: Inhibition of human DB cell growth in a cell viability assay.

[5] = test system: DJM-1; assay type: functional, cell-based, Homo sapiens; settings: Homo sapiens, DJM-1;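 note: growth inhibition of human DJM-1 cells, read out by a cell viability assay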
Description: SANGER: Inhibition of human DJM-1 cell growth in a cell viability assay.

[6] = test system: DMS-114; assay type: functional, cell-based, Homo sapiens; settings: Homo sapiens, DMS-114
[7] = test system: ETK-1; assay type: functional, cell-based, Homo sapiens; settings: Homo sapiens, ETK-1;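 note: growth inhibition of human ETK-1 cells, read out with a cell viability assay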
Description: SANGER: Inhibition of human ETK-1 cell growth in a cell viability assay.

[8] = test system: EW-13; assay type: functional, cell-based, Homo sapiens; settings: Homo sapiens, EW-13; read-out: IC50;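 note: growth inhibition of EW-13 cells, read out with a cell viability assay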
Description: SANGER: Inhibition of human EW-13 cell growth in a cell viability assay.

[9] = test system: EW-3; assay type: functional, cell-based, Homo sapiens; settings: Homo sapiens, EW-3;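 note: cell viability assay read-out, IC50 reflects inhibition of growth of the EW-3 cells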
Description: SANGER: Inhibition of human EW-3 cell growth in a cell viability assay.

[10] = test system: GI-1; assay type: functional, cell-based, Homo sapiens; settings: Homo sapiens, GI-1;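 note: growth inhibition of human GI-1 cells, measured with a cell viability readout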
Description: SANGER: Inhibition of human GI-1 cell growth in a cell viability assay.

[11] = test system: HAL-01; assay type: functional, cell-based, Homo sapiens; settings: Homo sapiens, HAL-01;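 note: growth inhibition of human HAL-01 cells, read out with a cell viability assay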
Description: SANGER: Inhibition of human HAL-01 cell growth in a cell viability assay.

[12] = test system: HCC2218; assay type: functional, cell-based, Homo sapiens; settings: Homo sapiens, HCC2218;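 note: cell viability assay read-out, with IC50 given as the concentration that inhibits growth of the cell line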
Description: SANGER: Inhibition of human HCC2218 cell growth in a cell viability assay.

[13] = test system: HT; assay type: functional, cell-based, Homo sapiens; settings: Homo sapiens, HT
Description: SANGER: Inhibition of human HT cell growth in a cell viability assay.

[14] = test system: IST-SL1; assay type: functional, cell-based, Homo sapiens; settings: Homo sapiens, IST-SL1;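 note: growth inhibition of human IST-SL1 cells, read out with a cell viability assay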
Description: SANGER: Inhibition of human IST-SL1 cell growth in a cell viability assay.

[15] = test system: J-RT3-T3-5; assay type: functional, cell-based, Homo sapiens; settings: Homo sapiens, J-RT3-T3-5;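 note: cell viability assay measuring growth inhibition of human J-RT3-T3-5 cells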
Description: SANGER: Inhibition of human J-RT3-T3-5 cell growth in a cell viability assay.

[16] = test system: JAR; assay type: functional, cell-based, Homo sapiens; settings: Homo sapiens, JAR;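 note: growth inhibition of human JAR cells determined with a cell viability assay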
Description: SANGER: Inhibition of human JAR cell growth in a cell viability assay.

[17] = test system: KE-37; assay type: functional, cell-based, Homo sapiens; settings: Homo sapiens, KE-37;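 note: growth inhibition of KE-37 cells, read out with a cell viability assay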
Description: SANGER: Inhibition of human KE-37 cell growth in a cell viability assay.

[18] = test system: KP-N-YS; assay type: functional, cell-based, Homo sapiens; settings: Homo sapiens, KP-N-YS;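 note: cell viability assay measuring inhibition of cell line growth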
Description: SANGER: Inhibition of human KP-N-YS cell growth in a cell viability assay.

[19] = test system: KU812 cell line; assay type: functional, cell-based, Homo sapiens; settings: Homo sapiens, KU812;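 note: growth inhibition of KU812 cells, read out with a cell viability assay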
Description: SANGER: Inhibition of human KU812 cell growth in a cell viability assay.

[20] = test system: L-363; assay type: functional, cell-based, Homo sapiens; settings: Homo sapiens, L-363
Description: SANGER: Inhibition of human L-363 cell growth in a cell viability assay.

[21] = test system: LAN-6; assay type: functional, cell-based, Homo sapiens; settings: Homo sapiens, LAN-6;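 note: growth inhibition of LAN-6 cells, determined with a cell viability assay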
Description: SANGER: Inhibition of human LAN-6 cell growth in a cell viability assay.

[22] = test system: LB771-HNC; assay type: functional, cell-based; settings: Homo sapiens;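 note: growth inhibition of LB771-HNC human cells, read out with a cell viability assay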
Description: SANGER: Inhibition of human LB771-HNC cell growth in a cell viability assay.

[23] = test system: LOX IMVI; assay type: functional, cell-based, Homo sapiens; settings: Homo sapiens, LOX IMVI
Description: SANGER: Inhibition of human LOXIMVI cell growth in a cell viability assay.

[24] = test system: MEG-01; assay type: functional, cell-based, Homo sapiens; settings: Homo sapiens, MEG-01;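 note: growth inhibition of MEG-01 cells, read out by a cell viability assay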
Description: SANGER: Inhibition of human MEG-01 cell growth in a cell viability assay.

[25] = test system: MFM-223; assay type: functional, cell-based, Homo sapiens; settings: Homo sapiens, MFM-223
Description: SANGER: Inhibition of human MFM-223 cell growth in a cell viability assay.

[26] = test system: ML-2; assay type: functional, cell-based, Homo sapiens; settings: Homo sapiens, ML-2;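 note: growth inhibition of ML-2 cells, measured with a cell viability readout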
Description: SANGER: Inhibition of human ML-2 cell growth in a cell viability assay.

[27] = test system: MOLT-16; assay type: functional, cell-based, Homo sapiens; settings: Homo sapiens, MOLT-16;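 note: growth inhibition of human MOLT-16 cells, read out with a cell viability assay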
Description: SANGER: Inhibition of human MOLT-16 cell growth in a cell viability assay.

[28] = test system: MV4-11; assay type: functional, cell-based, Homo sapiens, MV-4-11; settings: Homo sapiens, MV4-11;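 note: cell viability readout measuring growth inhibition of human MV-4-11 cells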
Description: SANGER: Inhibition of human MV-4-11 cell growth in a cell viability assay.

[29] = test system: MZ2-MEL; assay type: functional, cell-based, Homo sapiens; settings: Homo sapiens, MZ2-MEL;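 note: growth inhibition of MZ2-MEL cells read out with a cell viability assay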
Description: SANGER: Inhibition of human MZ2-MEL cell growth in a cell viability assay.

[30] = test system: NCI-H1395; assay type: functional, cell-based, Homo sapiens; settings: Homo sapiens, NCI-H1395;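 note: cell viability assay read-out quantifying reduced proliferation of human NCI-H1395 cells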
Description: SANGER: Inhibition of human NCI-H1395 cell growth in a cell viability assay.

[31] = test system: NCI-H720; assay type: functional, cell-based, Homo sapiens; settings: Homo sapiens, NCI-H720;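 note: growth inhibition of human NCI-H720 cells determined by a cell viability assay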
Description: SANGER: Inhibition of human NCI-H720 cell growth in a cell viability assay.

[32] = test system: SNU1; assay type: functional, cell-based, Homo sapiens; settings: Homo sapiens, SNU1;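 note: growth inhibition of human NCI-SNU-1 cells, measured with a cell viability assay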
Description: SANGER: Inhibition of human NCI-SNU-1 cell growth in a cell viability assay.

[33] = test system: NKM-1; assay type: functional, cell-based, Homo sapiens; settings: Homo sapiens, NKM-1;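 note: growth inhibition of NKM-1 cells, read out with a cell viability assay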
Description: SANGER: Inhibition of human NKM-1 cell growth in a cell viability assay.

[34] = test system: OCI-AML2; assay type: functional, cell-based, Homo sapiens; settings: Homo sapiens, OCI-AML2;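 note: growth inhibition of OCI-AML2 cells, read out with a cell viability assay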
Description: SANGER: Inhibition of human OCI-AML2 cell growth in a cell viability assay.

[35] = test system: OMC-1; assay type: functional, cell-based, Homo sapiens; settings: Homo sapiens, OMC-1;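 note: growth inhibition of the OMC-1 cell line, measured by a cell viability assay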
Description: SANGER: Inhibition of human OMC-1 cell growth in a cell viability assay.

[36] = test system: RCC10RGB; assay type: functional, cell-based, Homo sapiens; settings: Homo sapiens, RCC10RGB;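 note: growth inhibition of human RCC10RGB cells, read out by a cell viability assay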
Description: SANGER: Inhibition of human RCC10RGB cell growth in a cell viability assay.

[37] = test system: SCC-15; assay type: functional, cell-based, Homo sapiens; settings: Homo sapiens, SCC-15;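 note: growth inhibition of SCC-15 cells, read out with a cell viability assay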
Description: SANGER: Inhibition of human SCC-15 cell growth in a cell viability assay.

[38] = test system: SK-NEP-1; assay type: functional, cell-based, Homo sapiens; settings: Homo sapiens, SK-NEP-1;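 note: growth inhibition of human SK-NEP-1 cells, read out by a cell viability assay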
Description: SANGER: Inhibition of human SK-NEP-1 cell growth in a cell viability assay.

[39] = test system: SK-UT-1; assay type: functional, cell-based, Homo sapiens; settings: Homo sapiens, SK-UT-1;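 note: growth inhibition of SK-UT-1 cells, measured by a cell viability assay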
Description: SANGER: Inhibition of human SK-UT-1 cell growth in a cell viability assay.

[40] = test system: SW872; assay type: functional, cell-based, Homo sapiens; settings: Homo sapiens, SW872;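 note: growth inhibition of SW872 cells, read out by a viability assay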
Description: SANGER: Inhibition of human SW872 cell growth in a cell viability assay.

[41] = test system: TE-1; assay type: functional, cell-based, Homo sapiens; settings: Homo sapiens, TE-1;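 note: growth inhibition of the human TE-1 cell line, read out with a cell viability assay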
Description: SANGER: Inhibition of human TE-1 cell growth in a cell viability assay.

[42] = test system: A704; assay type: functional, cell-based; settings: Homo sapiens;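 note: growth inhibition of human A704 cells, read out with a cell viability assay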
Description: SANGER: Inhibition of human A704 cell growth in a cell viability assay.

[43] = test system: BB65-RCC; assay type: functional, cell-based, Homo sapiens; settings: Homo sapiens, BB65-RCC;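 note: growth inhibition of the cell line, measured with a cell viability assay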
Description: SANGER: Inhibition of human BB65-RCC cell growth in a cell viability assay.

[44] = test system: BE-13; assay type: functional, cell-based, Homo sapiens; settings: Homo sapiens, BE-13;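 note: growth inhibition of human BE-13 cells, measured with a cell viability assay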
Description: SANGER: Inhibition of human BE-13 cell growth in a cell viability assay.

[45] = test system: BT-474; assay type: functional, cell-based, Homo sapiens; settings: Homo sapiens, BT-474
Description: SANGER: Inhibition of human BT-474 cell growth in a cell viability assay.

[46] = test system: BV-173; assay type: functional, cell-based, Homo sapiens; settings: Homo sapiens, BV-173
Description: SANGER: Inhibition of human BV-173 cell growth in a cell viability assay.

[47] = test system: TE-6; assay type: functional, cell-based, Homo sapiens; settings: Homo sapiens, TE-6;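 note: growth inhibition of TE-6 cells, read out with a cell viability assay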
Description: SANGER: Inhibition of human TE-6 cell growth in a cell viability assay.

[48] = test system: U-87 MG; assay type: functional, cell-based, Homo sapiens, U-87MG ATCC; settings: Homo sapiens, U-87 MG;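 note: growth inhibition of the cells measured with a viability assay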
Description: SANGER: Inhibition of human U-87-MG cell growth in a cell viability assay.

[49] = test system: no-11; assay type: functional, cell-based, Homo sapiens; settings: Homo sapiens;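 note: growth inhibition of human NO-11 cells, read out with a cell viability assay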
Description: SANGER: Inhibition of human no-11 cell growth in a cell viability assay.

## C=CC(=O)N1CCCC(Nc2nc(Nc3ccc(N(C)C(=O)CC)cc3)nc3[nH]cnc23)C1 (configuration not stated)
[1]
  pIC50: < 4.99
[2]
  pIC50: < 4.99
[3]
  pIC50: < 4.99
[4]
  pIC50: < 4.99
[5]
  pIC50: < 4.99
[6]
  pIC50: < 4.99
[7]
  pIC50: < 4.99
[8]
  pIC50: < 4.99
[9]
  pIC50: < 4.99
[10]
  pIC50: < 4.99
[11]
  pIC50: < 4.99
[12]
  pIC50: < 4.99
[13]
  pIC50: < 4.99
[14]
  pIC50: < 4.99
[15]
  pIC50: < 4.99
[16]
  pIC50: < 4.99
[17]
  pIC50: < 4.99
[18]
  pIC50: < 4.99
[19]
  pIC50: < 4.99
[20]
  pIC50: < 4.99
[21]
  pIC50: < 4.99
[22]
  pIC50: < 4.99
[23]
  pIC50: < 4.99
[24]
  pIC50: < 4.99
[25]
  pIC50: < 4.99
[26]
  pIC50: < 4.99
[27]
  pIC50: < 4.99
[28]
  pIC50: 5.62
[29]
  pIC50: < 4.99
[30]
  pIC50: < 4.99
[31]
  pIC50: < 4.99
[32]
  pIC50: < 4.99
[33]
  pIC50: < 4.99
[34]
  pIC50: < 4.99
[35]
  pIC50: < 4.99
[36]
  pIC50: < 4.99
[37]
  pIC50: < 4.99
[38]
  pIC50: < 4.99
[39]
  pIC50: < 4.99
[40]
  pIC50: < 4.99
[41]
  pIC50: < 4.99
[42]
  pIC50: < 4.99
[43]
  pIC50: < 4.99
[44]
  pIC50: < 4.99
[45]
  pIC50: < 4.99
[46]
  pIC50: < 4.99
[47]
  pIC50: < 4.99
[48]
  pIC50: < 4.99
[49]
  pIC50: < 4.99

## Cc1cc(N2CCOCC2)cc2[nH]c(-c3c(NC[C@@H](O)c4cccc(Cl)c4)cc[nH]c3=O)nc12
[1]
  pIC50: < 5.29
[2]
  pIC50: < 5.29
[3]
  pIC50: < 5.29
[4]
  pIC50: < 5.29
[5]
  pIC50: < 5.29
[6]
  pIC50: < 5.29
[7]
  pIC50: 7.02
[8]
  pIC50: < 5.29
[9]
  pIC50: 5.32
[10]
  pIC50: 6.04
[11]
  pIC50: 5.95
[12]
  pIC50: < 5.29
[13]
  pIC50: < 5.29
[14]
  pIC50: < 5.29
[15]
  pIC50: < 5.29
[16]
  pIC50: < 5.29
[17]
  pIC50: < 5.29
[18]
  pIC50: < 5.29
[19]
  pIC50: < 5.29
[20]
  pIC50: 6.48
[21]
  pIC50: 6.77
[22]
  pIC50: 6.64
[23]
  pIC50: < 5.29
[24]
  pIC50: 5.38
[25]
  pIC50: < 5.29
[26]
  pIC50: 6.72
[27]
  pIC50: 5.30
[28]
  pIC50: 6.69
[29]
  pIC50: 5.32
[30]
  pIC50: < 5.29
[31]
  pIC50: < 5.29
[32]
  pIC50: < 5.29
[33]
  pIC50: < 5.29
[34]
  pIC50: 5.88
[35]
  pIC50: < 5.29
[36]
  pIC50: 5.45
[37]
  pIC50: < 5.29
[38]
  pIC50: < 5.29
[39]
  pIC50: < 5.29
[40]
  pIC50: 5.70
[41]
  pIC50: 6.12
[42]
  pIC50: 5.98
[43]
  pIC50: < 5.29
[44]
  pIC50: < 5.29
[45]
  pIC50: < 5.29
[46]
  pIC50: < 5.29
[47]
  pIC50: < 5.29
[48]
  pIC50: < 5.29
[49]
  pIC50: < 5.29

## NC(=O)Nc1cc(-c2cccc(F)c2)sc1C(=O)N[C@H]1CCCNC1 [AZD-7762]
[1]
  pIC50: 6.53
[2]
  pIC50: 6.44
[3]
  pIC50: < 5.70
[4]
  pIC50: 5.77
[5]
  pIC50: 6.05
[6]
  pIC50: < 5.70
[7]
  pIC50: 6.20
[8]
  pIC50: < 5.70
[9]
  pIC50: 6.13
[10]
  pIC50: 6.71
[11]
  pIC50: 6.68
[12]
  pIC50: < 5.70
[13]
  pIC50: 5.73
[14]
  pIC50: 6.20
[15]
  pIC50: 6.57
[16]
  pIC50: 6.63
[17]
  pIC50: 7.50
[18]
  pIC50: 6.23
[19]
  pIC50: 6.77
[20]
  pIC50: 7.13
[21]
  pIC50: 5.97
[22]
  pIC50: 6.25
[23]
  pIC50: 6.37
[24]
  pIC50: 6.46
[25]
  pIC50: 5.91
[26]
  pIC50: 6.90
[27]
  pIC50: 7.06
[28]
  pIC50: > 8.11
[29]
  pIC50: < 5.70
[30]
  pIC50: 6.70
[31]
  pIC50: 6.40
[32]
  pIC50: 6.57
[33]
  pIC50: > 8.11
[34]
  pIC50: 5.90
[35]
  pIC50: 6.24
[36]
  pIC50: < 5.70
[37]
  pIC50: < 5.70
[38]
  pIC50: 6.33
[39]
  pIC50: 6.73
[40]
  pIC50: < 5.70
[41]
  pIC50: 5.92
[42]
  pIC50: 6.27
[43]
  pIC50: 6.57
[44]
  pIC50: 6.70
[45]
  pIC50: < 5.70
[46]
  pIC50: 6.46
[47]
  pIC50: < 5.70
[48]
  pIC50: 5.92
[49]
  pIC50: 5.83
